For one data set, the system named is Liver microsomes. The data set can be described thus: Metabolic stability in rat liver microsomes assessed as intrinsic clearance at […] upto 30 mins. The data set is classed as ADME, Microsome. Conditions: 0.5 h.
Data set [1] deals with T1, Cytochrome P450 3A4 (Homo sapiens, UniProt P08684). The data set can be described thus: Inhibition of human CYP3A4 by microtiter plate assays using N-N,diethyl-formamide as substrate.
The target in data set [2] is T1, Cytochrome P450 3A4. The data set can be described thus: Inhibition of human CYP3A4 by microtiter plate assays using PPR substrate.
The target of data set [3] is T2, 5-hydroxytryptamine receptor 6 (Homo sapiens, UniProt P50406). The data set can be described thus: Antagonist activity at 5HT6 receptor expressed in HeLa cells assessed as 5HT-induced cAMP accumulation by chemiluminescence assay. The data set is classed as functional, cell-based.
T2 sequence (P50406 whole entry): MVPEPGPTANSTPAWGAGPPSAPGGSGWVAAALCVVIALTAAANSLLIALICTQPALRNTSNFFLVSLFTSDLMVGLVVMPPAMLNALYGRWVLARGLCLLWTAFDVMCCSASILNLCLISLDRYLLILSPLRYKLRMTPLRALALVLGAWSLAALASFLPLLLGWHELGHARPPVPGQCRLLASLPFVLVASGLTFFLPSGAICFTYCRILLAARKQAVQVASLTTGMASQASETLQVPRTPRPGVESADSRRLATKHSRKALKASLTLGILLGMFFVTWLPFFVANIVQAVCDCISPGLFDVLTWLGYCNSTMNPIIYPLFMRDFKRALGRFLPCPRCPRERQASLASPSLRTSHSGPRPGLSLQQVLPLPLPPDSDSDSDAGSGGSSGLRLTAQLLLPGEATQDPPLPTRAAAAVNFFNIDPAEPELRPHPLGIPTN
A short description of data set [4]: Ratio of drug level in brain to blood in orally dosed rat after 4 hrs. The note with it: brain and blood, po.
The target of data set [5] is T2, 5-hydroxytryptamine receptor 6. The data set can be described thus: Antagonist activity at 5HT6 receptor. The data set is classed as functional.
For a further data set, the system named is Blood. The data set can be described thus: Drug level in rat blood at 1 mg/kg, po. Conditions: in vivo, read-out: Drug uptake. The data set is classed as ADME, organism-based. More on the design: dose 1 mg/kg, route oral.
In data set [6] the target is 5-hydroxytryptamine receptor 2B (Homo sapiens, UniProt P41595). The data set can be described thus: Antagonist activity at 5HT2B receptor. The data set is classed as functional.
Chain of 5-hydroxytryptamine receptor 2B (P41595 whole entry): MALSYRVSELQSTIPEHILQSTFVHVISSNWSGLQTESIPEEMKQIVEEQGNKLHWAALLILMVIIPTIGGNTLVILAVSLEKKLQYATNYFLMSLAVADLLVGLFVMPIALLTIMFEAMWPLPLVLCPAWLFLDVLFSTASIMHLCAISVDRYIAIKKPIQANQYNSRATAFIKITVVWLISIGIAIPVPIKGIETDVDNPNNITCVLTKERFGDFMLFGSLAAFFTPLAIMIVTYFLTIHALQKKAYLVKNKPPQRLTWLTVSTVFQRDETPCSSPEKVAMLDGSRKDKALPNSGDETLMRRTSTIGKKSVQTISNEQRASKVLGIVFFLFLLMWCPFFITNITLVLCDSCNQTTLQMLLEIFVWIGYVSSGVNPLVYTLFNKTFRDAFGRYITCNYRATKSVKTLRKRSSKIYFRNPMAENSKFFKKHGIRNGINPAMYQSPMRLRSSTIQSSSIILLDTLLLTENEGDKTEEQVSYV
Data set [7] deals with T3, 5-hydroxytryptamine receptor 2C (Homo sapiens, UniProt P28335).
T3 sequence (P28335 whole entry): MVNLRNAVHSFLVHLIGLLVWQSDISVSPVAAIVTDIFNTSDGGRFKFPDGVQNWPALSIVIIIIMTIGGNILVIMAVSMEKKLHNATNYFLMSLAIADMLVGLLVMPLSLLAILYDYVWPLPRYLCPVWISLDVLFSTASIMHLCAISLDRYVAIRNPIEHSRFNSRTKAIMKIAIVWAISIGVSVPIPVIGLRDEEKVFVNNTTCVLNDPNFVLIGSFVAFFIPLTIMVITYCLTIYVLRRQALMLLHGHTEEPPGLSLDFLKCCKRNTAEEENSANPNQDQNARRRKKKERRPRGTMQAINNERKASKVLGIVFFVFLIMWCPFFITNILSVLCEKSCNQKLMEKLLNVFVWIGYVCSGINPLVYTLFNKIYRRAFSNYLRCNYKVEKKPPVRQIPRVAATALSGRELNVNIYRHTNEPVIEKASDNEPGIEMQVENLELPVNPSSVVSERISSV
The data set can be described thus: Antagonist activity at 5HT2C receptor. The data set is classed as functional.

Data set [8] deals with 5-hydroxytryptamine receptor 2A (Homo sapiens, UniProt P28223). The data set can be described thus: Antagonist activity at 5HT2A receptor. The data set is classed as functional.
Chain of 5-hydroxytryptamine receptor 2A (P28223 whole entry): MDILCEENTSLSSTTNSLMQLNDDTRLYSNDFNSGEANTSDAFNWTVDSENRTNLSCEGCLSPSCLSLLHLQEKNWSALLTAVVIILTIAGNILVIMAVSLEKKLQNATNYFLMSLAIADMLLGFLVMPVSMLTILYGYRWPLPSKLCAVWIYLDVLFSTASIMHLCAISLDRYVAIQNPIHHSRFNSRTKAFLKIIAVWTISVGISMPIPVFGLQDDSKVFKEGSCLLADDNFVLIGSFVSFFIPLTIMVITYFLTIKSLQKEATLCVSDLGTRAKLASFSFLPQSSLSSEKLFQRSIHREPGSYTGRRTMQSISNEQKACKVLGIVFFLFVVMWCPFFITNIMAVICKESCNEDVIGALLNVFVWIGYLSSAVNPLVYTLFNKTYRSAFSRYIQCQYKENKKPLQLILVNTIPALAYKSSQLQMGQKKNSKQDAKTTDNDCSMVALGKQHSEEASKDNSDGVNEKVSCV
For data set [9], the target named is 5-hydroxytryptamine receptor 6 (Rattus norvegicus) (UniProt P31388). The data set can be described thus: Ex vivo displacement of [125I]258585 from 5HT6 receptor in po dosed rat striatum. The data set is classed as organism-based.
Chain of 5-hydroxytryptamine receptor 6 (Rattus norvegicus) (P31388 whole entry): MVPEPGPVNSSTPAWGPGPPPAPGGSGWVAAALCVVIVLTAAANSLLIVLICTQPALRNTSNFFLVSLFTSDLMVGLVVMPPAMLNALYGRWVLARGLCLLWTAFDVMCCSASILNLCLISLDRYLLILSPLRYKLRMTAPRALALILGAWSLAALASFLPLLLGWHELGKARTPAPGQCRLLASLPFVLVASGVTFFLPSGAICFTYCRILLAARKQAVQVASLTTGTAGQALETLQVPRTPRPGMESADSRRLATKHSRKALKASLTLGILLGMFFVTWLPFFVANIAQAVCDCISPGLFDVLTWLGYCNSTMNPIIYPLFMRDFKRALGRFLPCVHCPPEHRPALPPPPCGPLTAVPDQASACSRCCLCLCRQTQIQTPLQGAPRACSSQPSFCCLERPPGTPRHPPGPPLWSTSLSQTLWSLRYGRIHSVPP

Structures are written as SMILES.

These results are taken from ChEMBL document CHEMBL1144232, “Tricyclic azepine derivatives as selective brain penetrant 5-HT6 receptor antagonists” (Bioorg Med Chem Lett, 2008).

T1 sequence (P08684 whole entry): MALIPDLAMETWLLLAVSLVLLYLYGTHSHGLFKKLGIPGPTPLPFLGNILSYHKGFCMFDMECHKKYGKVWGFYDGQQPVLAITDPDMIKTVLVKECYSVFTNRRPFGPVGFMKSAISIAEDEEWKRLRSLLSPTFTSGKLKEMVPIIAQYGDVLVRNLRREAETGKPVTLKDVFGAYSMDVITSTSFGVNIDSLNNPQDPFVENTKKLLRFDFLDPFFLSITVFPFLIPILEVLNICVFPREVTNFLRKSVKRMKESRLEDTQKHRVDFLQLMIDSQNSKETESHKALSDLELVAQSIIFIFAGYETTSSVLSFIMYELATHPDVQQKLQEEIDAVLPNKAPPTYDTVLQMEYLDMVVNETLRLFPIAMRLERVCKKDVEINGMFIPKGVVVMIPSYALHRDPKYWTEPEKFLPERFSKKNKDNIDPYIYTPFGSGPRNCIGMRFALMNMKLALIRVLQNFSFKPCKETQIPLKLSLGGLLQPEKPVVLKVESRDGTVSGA

Consider `Cn1cc(S(=O)(=O)c2ccccc2)c2cc3c(cc21)CCNCC3`, for which, in the data set on Liver microsomes, the CL worked out at 4.6 mL/min/g. Moreover, the figures for the IC50 at Cytochrome P450 3A4 [1] and against Cytochrome P450 3A4 [2] were 7800 nM and 13000 nM, respectively. Further, the Ki in data set [3] is 2 nM.

With `O=S(=O)(c1ccccc1Cl)n1ccc2cc3c(cc21)CCNCC3`, in the data set with Liver microsomes, the CL was determined as 4.5 mL/min/g. For the same compound, the IC50 came out at 2500 nM against Cytochrome P450 3A4 [1] and 3200 nM against Cytochrome P450 3A4 [2]. Also, the Ki in [3] was 7.94 nM.

Turning to `O=S(=O)(c1ccc(Cl)cc1)n1ccc2cc3c(cc21)CCNCC3`, the Ki in data set [3] is 7.94 nM.

For `CN1CCc2cc3ccn(S(=O)(=O)c4cccc(Cl)c4)c3cc2CC1`, in the data set on Liver microsomes, the CL came out at 22 mL/min/g. Moreover, the IC50 against Cytochrome P450 3A4 [1] was found to be 15000 nM; at Cytochrome P450 3A4 [2], 71000 nM. In addition, the Ki in data set [3] was 1.26 nM.

In the case of `O=S(=O)(Nc1ccc2c(c1)CCNCC2)c1ccccc1`, the Kp at 4 h in [4] was 0.5. In addition, the affinity in data set [5] corresponds to a Ki of 2 nM.

Regarding `O=S(=O)(c1cccc(Cl)c1)n1ccc2cc3c(cc21)CCNCC3`, in the data set with Liver microsomes, the CL worked out at 2.5 mL/min/g. In addition, the IC50 against Cytochrome P450 3A4 [1] worked out at 3000 nM; against Cytochrome P450 3A4 [2], 7000 nM. In addition, in [4], the Kp at 4 h worked out at 5. In addition, the Ki in data set [3] was 1.58 nM. Moreover, the concentration in the data set with Blood came out at 38 nM.

Turning to `O=S(=O)(c1ccsc1)n1ccc2cc3c(cc21)CCNCC3`, the CL in the data set with Liver microsomes turned out to be 21 mL/min/g. In addition, the results for the IC50 against Cytochrome P450 3A4 [1] and on Cytochrome P450 3A4 [2] were 9700 nM and 22000 nM, respectively. For the same compound, the Ki in [3] was 7.94 nM.

With `O=S(=O)(c1ccccc1)N1CCCc2cc3c(cc21)CCNCC3`, the Ki in data set [3] is 39.8 nM.

For the compound `O=S(=O)(c1ccccn1)n1ccc2cc3c(cc21)CCNCC3`, the CL in the data set with Liver microsomes stood at 3.6 mL/min/g. The values for the IC50 against Cytochrome P450 3A4 [1] and at Cytochrome P450 3A4 [2] were 39000 nM and 77000 nM, respectively. For the same compound, the Ki in [3] is 100 nM.

Turning to `O=S(=O)(c1ccccc1)n1cc(Cl)c2cc3c(cc21)CCNCC3`, the Ki in data set [6] was 398 nM; in data set [7], 158 nM; in data set [3] it was 2.51 nM; in [8], 25.1 nM. In addition, the CL in the data set on Liver microsomes amounted to 1.7 mL/min/g. Moreover, the IC50 on Cytochrome P450 3A4 [1] stood at 12000 nM; at Cytochrome P450 3A4 [2], 19000 nM. Further, the ED50 in data set [9] worked out at 4 mg/kg.

On to `COc1cccc(S(=O)(=O)n2ccc3cc4c(cc32)CCNCC4)c1`, for which the CL in the data set with Liver microsomes was determined as 2.7 mL/min/g. The IC50 on Cytochrome P450 3A4 [1] is 17000 nM; on Cytochrome P450 3A4 [2], 27000 nM. Moreover, the Ki in [3] is 2 nM.

For the compound `O=S(=O)(c1ccccc1)n1ccc2cc3c(cc21)CCNCC3`, the CL in the data set on Liver microsomes is 7.1 mL/min/g. Besides, the IC50 stood at 12000 nM on Cytochrome P450 3A4 [1] and 20000 nM against Cytochrome P450 3A4 [2]. In data set [3], the Ki is 1.58 nM.

`O=S(=O)(c1cccc(Cl)c1)n1cc(Cl)c2cc3c(cc21)CCNCC3`: the CL with Liver microsomes was under 0.5 mL/min/g. In addition, the inhibition constant Ki in [3] was 3.98 nM.
